The nature of the data set: Thermo Scientific Acclaim RSLC 120 C18, 100 × 2.1 mm, 2.2 µm, 30 °C; A: 90% water + 10% methanol + 0.01% formic acid + 5 mM ammonium formate; B: methanol + 0.01% formic acid + 5 mM ammonium formate; gradient (min/%B) 0.1/1 3/39 14/99.9 16/99.9. To be noted: stereoisomer not certain.
Consider `CC(=O)c1ccc2c(c1)N(CC(C)N(C)C)c1ccccc1S2` (configuration not stated), for which the LC retention time came to 7.26 min. With `CCOP(=S)(OCC)Oc1ccc(S(C)=O)cc1` (configuration not stated) the figure was 8.27 min; with `Cc1c(N(C)CS(=O)(=O)O)c(=O)n(-c2ccccc2)n1C`, 4.49 min. With `CC(=O)Nc1c(C)n(C)n(-c2ccccc2)c1=O` the figure was 3.94 min; with `CC(=O)Nc1ccc(S(=O)(=O)Nc2ncccn2)cc1`, 4.11 min; with `CNC(=O)C(=NOC)c1ccccc1COc1cc(C)ccc1C`, 10.7 min. As for `c1ccc(C(CCN2CCCCC2)c2ccccc2)cc1`, the LC retention time amounted to 6.82 min.

With `CON=C(C(=O)NC1C(=O)N2C(C(=O)[O-])=C(C[n+]3cccc4c3CCCC4)CSC12)c1csc(N)n1` (configuration not stated), the LC retention time was 3.76 min. Turning to `COC(=O)C1=COC(C)C2CN3CCc4c([nH]c5ccccc45)C3CC12` (configuration not stated), the LC retention time is 6.66 min. With `CN1CCN2c3ncccc3Cc3ccccc3C2C1` (configuration not stated) the figure was 5.29 min. Consider `COC(=O)C1C(OC(=O)c2ccccc2)CC2CCC1N2C` (configuration not stated), for which the LC retention time came out at 4.84 min.

For `CCCC(NC(C)C(=O)N1C(C(=O)O)CC2CCCCC21)C(=O)OCC` (configuration not stated), the LC retention time came to 13.2 min.

Take `CNCC(O)c1cccc(O)c1` (configuration not stated): the LC retention time stood at 1.93 min. With `CNC(=O)ON=C(C)SC` the figure was 4.16 min. As to `CCC(=O)OC(OP(=O)(CCCCc1ccccc1)CC(=O)N1CC(C2CCCCC2)CC1C(=O)O)C(C)C` (configuration not stated), the LC retention time is 12.4 min. With `CC(C)(C(=O)O)c1ccc(C(O)CCCN2CCC(C(O)(c3ccccc3)c3ccccc3)CC2)cc1` (configuration not stated) the figure was 7.68 min; with `O=C1OCC(O)=C1Cc1ccccc1`, 5.06 min; with `COc1cc(CCN)c(OC)cc1C`, 5.34 min. Then `CCc1nnc(NS(=O)(=O)c2ccc(N)cc2)s1`, with 4.81 min; and `CC1COC(=O)c2cc3c(cc21)C(C)(C)C(C)C3(C)C` (configuration not stated), with 12 min. On to `CCOC(=O)C1=CC(OC(CC)CC)C(NC(C)=O)C(N)C1` (configuration not stated), for which the LC retention time amounted to 6.76 min. For `CCOP(=O)(OCC)SCSCC`, the LC retention time is 8.6 min. With `CCn1cc(C(=O)O)c(=O)c2ccc(C)nc21` the figure was 7.06 min.

On to `c1ccc2c(c1)Sc1ccccc1N2CC1CN2CCC1CC2` (configuration not stated), for which the LC retention time is 8.29 min. With `COc1ccc2c3c1OC1C(O)C=CC4C(C2)NCCC341` (configuration not stated) the figure was 3.5 min.

In the case of `CNCCC(Oc1ccccc1C)c1ccccc1` (configuration not stated), the LC retention time worked out at 7.63 min.

For the molecule `CCC1OC(=O)C(C)C(OC2CC(C)(OC)C(O)C(C)O2)C(C)C(OC2OC(C)CC(NC)C2O)C(C)(OC)CC(C)C(=O)C(C)C(O)C1(C)O` (configuration not stated), the LC retention time is 9.16 min. As to `CCCCCCCn1cc(C(=O)c2cccc3ccccc23)c2ccccc21`, the LC retention time amounted to 13.4 min. As for `CC(C)N(CCc1c[nH]c2ccccc12)C(C)C`, the LC retention time worked out at 4.87 min. `NC(=O)N1c2ccccc2C=Cc2ccccc21`: the LC retention time amounted to 7.36 min. Take `CCOP(=O)(Sc1ccccc1)Sc1ccccc1`: the LC retention time was 10.8 min.

Turning to `COc1cccc(C2(O)CCCCC2C[N+](C)(C)[O-])c1` (configuration not stated), the LC retention time is 5.24 min. Take `CCCN(CCC)C(=O)SCC`: the LC retention time stood at 10.7 min.

With `CCN(CC)CCOC(=O)c1ccc(N)cc1`, the LC retention time turned out to be 3.21 min.

Regarding `CCN(CCO)CCn1c(Cc2ccccc2)nc2c1c(=O)n(C)c(=O)n2C`, the LC retention time was 5.24 min. As to `CCS(=O)Cc1ccccc1OC(=O)NC` (configuration not stated), the LC retention time came out at 4.7 min.

On to `CP(=O)(O)CCC(N)C(=O)O` (configuration not stated), for which the LC retention time stood at 1.44 min. Regarding `COc1ccc2c3c1OC1C(OC(C)=O)=CCC4C(C2)N(C)CCC314` (configuration not stated), the LC retention time amounted to 4.47 min.

With `CNC(=O)C=C(C)OP(=O)(OC)OC`, the LC retention time amounted to 4.36 min. As to `CNC(C)C(=O)c1ccccc1` (configuration not stated), the LC retention time was determined as 3.68 min.

Take `CC12CCC3c4ccc(O)cc4CCC3C1CCC2=O` (configuration not stated): the LC retention time is 9.56 min. Take `CCCc1nn(C)c2c(=S)nc(-c3cc(S(=O)(=O)N4CCN(CC)CC4)ccc3OCC)[nH]c12`: the LC retention time was found to be 10.6 min. Then `Cc1cc2c(OCC(O)CNC(C)C)cccc2[nH]1` (configuration not stated), with 4.44 min; and `COc1ccc(CCN(C)CCCC(C#N)(c2ccc(OC)c(OC)c2)C(C)C)cc1OC` (configuration not stated), with 7.03 min; and `CCOc1ccccc1OC(c1ccccc1)C1CNCCO1` (configuration not stated), with 7.28 min. As for `CC(C)N(Cc1ccccc1)C(=O)C(C)(C)C`, the LC retention time amounted to 10.2 min. With `NC1CC1c1ccccc1` (configuration not stated), the LC retention time came out at 4.27 min. As to `COc1ccc2[nH]cc(CCN)c2c1`, the LC retention time was determined as 4.01 min. Then `CCC1OC(=O)C(C)C(=O)C(C)C(OC2OC(C)CC(N(C)C)C2O)C(C)(OC)CC(C)C(=O)C(C)C2N(CCCCn3cnc(-c4cccnc4)c3)C(=O)OC12C` (configuration not stated), with 7.25 min; and `COC(=O)C1C2CCC(CC1OC(=O)c1ccccc1)N2` (configuration not stated), with 5.15 min.

Take `CNC(=O)Oc1cccc(C)c1`: the LC retention time amounted to 6.59 min. Then `Cc1cc(C(C)(C)C)cc(C)c1CC1=NCCN1`, with 7.75 min; and `CC12CCC(=O)C=C1CCC1C2CCC2(C)C(C(=O)COC(=O)CCc3ccccc3)CCC12` (configuration not stated), with 13 min; and `CN1C(C(=O)Nc2ccccn2)=C(O)c2ccccc2S1(=O)=O`, with 6.84 min.

For the molecule `O=c1[nH]c2ccccc2s1`, the LC retention time was 6.53 min.

`CN1CCCCC1Cn1cc(C(=O)C2C(C)(C)C2(C)C)c2ccccc21` (configuration not stated): the LC retention time was 8.81 min.

Turning to `COc1ccc2c3c1OC1C(=O)CCC4(O)C(C2)NCCC314` (configuration not stated), the LC retention time stood at 3.71 min. Then `CN1CCCCC(n2cc(C(=O)c3cccc4ccccc34)c3ccccc32)C1` (configuration not stated), with 8.61 min; and `CN(C)CCOC(=O)C(c1ccccc1)C1(O)CCCC1` (configuration not stated), with 6.16 min; and `NNC(=O)c1ccncc1`, with 2.18 min.

With `CC(C)(C)NCC(O)COc1cccc2c1CCCC2=O` (configuration not stated), the LC retention time came to 4.84 min. Then `N#Cc1ccc(C(c2ccc(C#N)cc2)n2cncn2)cc1`, with 6.33 min; and `O=C(OC1CN2CCC1CC2)N1CCc2ccccc2C1c1ccccc1` (configuration not stated), with 7.95 min. Then `CN1CCN2c3ncc(O)cc3Cc3ccccc3C2C1` (configuration not stated), with 4.54 min; and `NC(=O)C1CCCN1` (configuration not stated), with 1.31 min. Turning to `Nc1ccc(S(=O)(=O)NC(=O)c2ccccc2)cc1`, the LC retention time was determined as 4.72 min. Then `Nc1ncn[nH]1`, with 1.44 min.

As to `CNC(=O)Oc1cccc2c1OC(C)(C)C2`, the LC retention time stood at 7.01 min. Consider `CN(C)CCC=C1c2ccccc2CCc2ccccc21`, for which the LC retention time was 8.23 min. With `CC(=O)OC1CCC2C3CCC4CC(=O)C=C(C)C4(C)C3CCC12C` (configuration not stated) the figure was 12.5 min.

Take `CCCC(NC)C(=O)c1ccccc1` (configuration not stated): the LC retention time is 4.89 min. Then `CCCCCn1cc(C(=O)c2cccc3ccccc23)c2ccc(OC)cc21`, with 12.4 min.

The values above are taken from the RepoRT retention time repository (doi:10.1016/j.jhazmat.2019.121712).
